Test results reported in patent US20090069271A1, “WOOD TREATMENT” (priority 2005, published 2009).
Read-outs that look alike come from different tables or passages of the source.

Key:
[1] = aqueous dioxane, tri-(dicyclohexylcarbinyl) borate = 1, cited from earlier work
[2] = base catalysed hydrolysis, 60% aqueous dioxane at 21°; cited from earlier work
[3] = Pseudo three-dimensional hydrolysis test, sample layered on distilled water; type: physicochemical; details: sample layered on distilled water in a test tube; 20 mls sample layered on 10 mls distilled water in 19 mm test tube
Experimental: A pseudo three-dimensional test was made by taking 10 mls of distilled water and placing in a 19 mm diameter test tube. 20 mls of sample was then layered on the water; the rate of hydrolysis was then measured. This was done by taking 2 ml samples from the test tube over time, refluxing and titrating the 2 ml samples to get the concentration. The test was with n-butyl di-n-propyl borate, which should have similar kinetic properties to tri-n-propyl borate and tri-n-butyl borate. The test was also done with tri-n-octyl borate.
It can be seen that there is an exponential difference in the half-life when changing the conditions of hydrolysis. For the commercial method of which the patent covers, the hydrolysis rate is slow enough to give consistent uptake of product in the timber and provide stable solution concentration.

SMILES	Relative rate of hydrolysis [1]	also measured
CCC(C)(C)OB(OC(C)(C)CC)OC(C)(C)CC [Tri-t-amyl borate]	449	–
CCCOB(OCCC)OCCC [Tri-n-propyl borate]	–	Half-life(sec.) [2]: Too fast to measure
CC(C)CC(C)CC(CC(C)C)OB(OC(CC(C)C)CC(C)CC(C)C)OC(CC(C)C)CC(C)CC(C)C (centres unmarked) [Tri-(2,6,8-trimethyl-4-nonyl) borate]	4.83	–
C#CC1(OB(OC2(C#C)CCCCC2)OC2(C#C)CCCCC2)CCCCC1 [Tri-(1-ethynylcyclohexyl) borate]	4.29 × 10^4	–
CC(C)CC(CC(C)C)OB(OC(CC(C)C)CC(C)C)OC(CC(C)C)CC(C)C [Tri-(diisobutylcarbinyl) borate]	5.86	–
CCCCCCCCCCCCCCCCCCOB(OCCCCCCCCCCCCCCCCCC)OCCCCCCCCCCCCCCCCCC [Tristearyl borate]	2.71 × 10^4	Half-life [2]: 21.7 s
C1CCC(C(OB(OC(C2CCCCC2)C2CCCCC2)OC(C2CCCCC2)C2CCCCC2)C2CCCCC2)CC1 [Tri-(dicyclohexylcarbinyl) borate]	1	–
CCC(CC)OB(OC(CC)CC)OC(CC)CC [Tri-3-pentyl borate]	483	–
CCCCC(CC)OB(OC(CC)CCCC)OC(CC)CCCC (centres unmarked) [Tri-3-heptyl borate]	415	–
CC(C)CC(C)OB(OC(C)CC(C)C)OC(C)CC(C)C (centres unmarked) [Tri-(methylisobutylcarbinyl) borate]	2430	–
CCCCCCCCOB(OCCCCCCCC)OCCCCCCCC [Tri-n-octyl borate]	3.67 × 10^4	Half-life [2]: 16.0 s
CCCCCCC(C)OB(OC(C)CCCCCC)OC(C)CCCCCC (centres unmarked) [Tri-2-octyl borate]	4.33 × 10^3	–
c1ccc([C@@H]2CCCC[C@H]2OB(O[C@@H]2CCCC[C@H]2c2ccccc2)O[C@@H]2CCCC[C@H]2c2ccccc2)cc1 (relative stereo) [Tri-(trans-2-phenylcylohexyl) borate]	40.0	–
CCCCOB(OCCC)OCCC [n-butyl di-n-propyl borate]	–	Half-life [3]: 6.5 h
C1CCC(OB(OC2CCCCC2)OC2CCCCC2)CC1 [Tri-(2-cyclohexyl) borate]	3.67	–
CCCCCCOB(OCCCCCC)OCCCCCC [Tri-hexyl borate]	2.02 × 10^5	Half-life [2]: 2.9 s
COB(OC)OC [Trimethyl borate]	–	Half-life(sec.) [2]: Too fast to measure
CCCCCCCCCCCCOB(OCCCCCCCCCCCC)OCCCCCCCCCCCC [Tri-n-dodecyl borate]	2.77 × 10^4	Half-life [2]: 21.3 s; Relative rate of hydrolysis ([1]; listed as Tri-dodecyl borate): 2.77×10^4
c1ccc(C2CCCCC2OB(OC2CCCCC2c2ccccc2)OC2CCCCC2c2ccccc2)cc1 (centres unmarked) [Tri-(2-phenylcyclohexyl) borate]	34.1	–
CCCCCOB(OCCCCC)OCCCCC [Tri-n-amyl borate]	5.87 × 10^5	Half-life [2]: 1.0 s
CCC(C)OB(OC(C)CC)OC(C)CC (centres unmarked) [Tri-s-butyl borate]	1.68 × 10^5	–
CC(C)(C)OB(OC(C)(C)C)OC(C)(C)C [Tri-t-butyl borate]	1370	–
CCCCCCCC/C=C\CCCCCCCCOB(OCCCCCCCC/C=C\CCCCCCCC)OCCCCCCCC/C=C\CCCCCCCC [Trioleyl borate]	3.57 × 10^4	–
CCCC1OB(OCC(CC)C(CCC)OB2OCC(CC)C(CCC)O2)OCC1CC (centres unmarked) [Tri-(octylene glycol) biborate]	3.92 × 10^5	–
CCCCC(CC)COB(OCC(CC)CCCC)OCC(CC)CCCC (centres unmarked) [Tri-(2-ethylhexyl) borate]	2.77 × 10^3	–
CCCCOB(OCCCC)OCCCC [Tri-n-butyl borate]	–	Half-life(sec.) [2]: Too fast to measure; Half-life [3]: 89 h
CCOB(OCC)OCC [Triethyl borate]	–	Half-life(sec.) [2]: Too fast to measure
c1ccc([C@H]2CCCC[C@H]2OB(O[C@@H]2CCCC[C@@H]2c2ccccc2)O[C@@H]2CCCC[C@@H]2c2ccccc2)cc1 (relative stereo) [Tri-(cis-2-phenylcyclohexyl) borate]	28.2	–
